Experiment: xn = mol fraction of the nth substance listed
Settings: Fluid (supercritical or subcritical phases), Buoyancy - hydrostatic balance with magnetic suspension - one sinker

CCCCCCCCCCC [undecane] + O=C=O
Settings	mass density [kg/m3]
313.18 K, 8001 kPa, x2 = 0.6797	776.08
313.18 K, 13999 kPa, x2 = 0.2483	745.92
313.18 K, 16002 kPa, x2 = 0.6797	808.24
313.18 K, 18070 kPa, x2 = 0.8874	825.37
313.18 K, 18977 kPa, x2 = 0.2483	749.97
313.19 K, 16008 kPa, x2 = 0.2483	747.58
313.19 K, 19014 kPa, x2 = 0.6797	817.41
313.2 K, 10002 kPa, x2 = 0.6797	785.54
313.2 K, 12013 kPa, x2 = 0.2483	744.22
313.21 K, 8004 kPa, x2 = 0.2483	740.68
313.21 K, 10007 kPa, x2 = 0.2483	742.45
313.21 K, 12003 kPa, x2 = 0.6797	793.85
313.21 K, 13997 kPa, x2 = 0.6797	801.3
313.21 K, 18002 kPa, x2 = 0.2483	749.16
313.22 K, 19000 kPa, x2 = 0.4641	772.52
313.23 K, 16004 kPa, x2 = 0.4641	769.05
313.23 K, 17996 kPa, x2 = 0.4641	771.37
313.24 K, 10003 kPa, x2 = 0.4641	761.59
313.24 K, 12000 kPa, x2 = 0.4641	764.15
313.24 K, 18003 kPa, x2 = 0.6797	814.33
313.25 K, 7997 kPa, x2 = 0.4641	758.91
313.26 K, 10039 kPa, x2 = 0.8874	773.99
313.26 K, 11990 kPa, x2 = 0.8874	789.91
313.26 K, 14074 kPa, x2 = 0.8874	803.72
313.27 K, 16066 kPa, x2 = 0.8874	815
313.27 K, 19015 kPa, x2 = 0.8874	829.45
313.29 K, 14002 kPa, x2 = 0.4641	766.59
323.11 K, 18008 kPa, x2 = 0.6797	792.77
323.14 K, 11997 kPa, x2 = 0.2483	736.47
323.15 K, 16006 kPa, x2 = 0.4641	758.48
323.17 K, 7997 kPa, x2 = 0.4641	747.66
323.17 K, 14005 kPa, x2 = 0.4641	755.92
323.17 K, 19002 kPa, x2 = 0.6797	795.98
323.19 K, 9992 kPa, x2 = 0.6797	757.97
323.2 K, 9999 kPa, x2 = 0.2483	734.59
323.2 K, 11998 kPa, x2 = 0.6797	768.5
323.2 K, 16011 kPa, x2 = 0.2483	739.99
323.2 K, 18000 kPa, x2 = 0.2483	741.72
323.23 K, 14011 kPa, x2 = 0.2483	738.22
323.23 K, 19001 kPa, x2 = 0.2483	742.54
323.25 K, 16042 kPa, x2 = 0.6797	785.42
323.25 K, 19040 kPa, x2 = 0.8874	798.97
323.26 K, 10008 kPa, x2 = 0.4641	750.42
323.26 K, 12004 kPa, x2 = 0.4641	753.18
323.26 K, 19006 kPa, x2 = 0.4641	762.09
323.27 K, 8000 kPa, x2 = 0.2483	732.65
323.27 K, 18003 kPa, x2 = 0.4641	760.86
323.3 K, 14004 kPa, x2 = 0.6797	777.17
323.31 K, 13971 kPa, x2 = 0.8874	764.29
323.31 K, 18051 kPa, x2 = 0.8874	793.06
323.32 K, 11984 kPa, x2 = 0.8874	745.06
323.32 K, 16015 kPa, x2 = 0.8874	779.89
333.05 K, 15991 kPa, x2 = 0.2483	732.43
333.06 K, 8008 kPa, x2 = 0.2483	724.69
333.06 K, 18013 kPa, x2 = 0.2483	734.27
333.07 K, 18027 kPa, x2 = 0.6797	770.02
333.07 K, 19007 kPa, x2 = 0.2483	735.15
333.09 K, 18042 kPa, x2 = 0.8874	758.98
333.11 K, 12010 kPa, x2 = 0.8874	701.45
333.14 K, 10000 kPa, x2 = 0.2483	726.64
333.14 K, 11987 kPa, x2 = 0.6797	745.9
333.14 K, 18003 kPa, x2 = 0.4641	751.23
333.14 K, 19000 kPa, x2 = 0.6797	773.23
333.16 K, 10004 kPa, x2 = 0.4641	739.87
333.16 K, 11998 kPa, x2 = 0.4641	742.85
333.16 K, 12018 kPa, x2 = 0.2483	728.6
333.16 K, 16006 kPa, x2 = 0.4641	748.54
333.16 K, 19039 kPa, x2 = 0.8874	765.91
333.17 K, 8004 kPa, x2 = 0.4641	736.7
333.17 K, 13998 kPa, x2 = 0.6797	754.83
333.17 K, 14005 kPa, x2 = 0.8874	721.01
333.17 K, 14013 kPa, x2 = 0.2483	730.5
333.19 K, 13997 kPa, x2 = 0.4641	745.71
